In ChEMBL document CHEMBL1147908, “Preparation of novel anthranilic acids as antibacterial agents. Extensive evaluation of alternative amide bioisosteres connecting the A- and the B-rings” (2007) one finds MIC data, which are given here for 10 molecules.

Assay type in all cases: functional
Assay [1] deals with Staphylococcus epidermidis. The assay can be described thus: Antibacterial activity against Staphylococcus epidermidis UC 12084.
The next assay has as its system Enterococcus faecalis. Kind of assay: Antibacterial activity against Enterococcus faecalis UC 9217.
A further assay relates to Staphylococcus aureus. The assay can be described thus: Antibacterial activity against Staphylococcus aureus UC 9218.
A further assay deals with Haemophilus influenzae. Kind of assay: Antibacterial activity against Haemophilus influenzae 30063.
For another assay, the system named is Streptococcus pneumoniae. Kind of assay: Antibacterial activity against Streptococcus pneumoniae UC 9912.

Values after ≈ are worked out from the molar mass of the structure shown.

Regarding `N#Cc1ccc(C=Cc2cccc(S(=O)(=O)N3CCc4cc(Cl)ccc43)c2)c(C(=O)O)c1`, the MIC in assay [1] was 32 µg/mL (≈ 68.8 µM); against Enterococcus faecalis, greater than 128 µg/mL; in the assay on Staphylococcus aureus it was 16 µg/mL (≈ 34.4 µM); against Haemophilus influenzae, greater than 128 µg/mL; against Streptococcus pneumoniae, 64 µg/mL (≈ 138 µM).
For the molecule `O=C(O)c1cc(Cl)ccc1-c1ccc(S(=O)(=O)N2CCc3cc(Cl)ccc32)cc1`, the MIC in assay [1] is 128 µg/mL (≈ 286 µM); with Enterococcus faecalis, greater than 128 µg/mL; in the assay with Staphylococcus aureus, 128 µg/mL (≈ 286 µM); against Haemophilus influenzae, greater than 128 µg/mL; against Streptococcus pneumoniae, greater than 128 µg/mL.
With `Cc1ccc(S(=O)(=O)Nc2ccc(-c3ccc(Cl)cc3)c(C(=O)O)c2)cc1`, the MIC in assay [1] was 64 µg/mL (≈ 159 µM); against Enterococcus faecalis it was greater than 128 µg/mL; in the assay on Staphylococcus aureus, greater than 128 µg/mL; against Haemophilus influenzae, greater than 128 µg/mL; in the assay with Streptococcus pneumoniae, greater than 128 µg/mL.
Take `N#Cc1ccc(/C=C/c2cccc(S(=O)(=O)N3CCc4cc(Cl)ccc43)c2)c(C(=O)O)c1`: the MIC was 0.5 µg/mL (≈ 1.08 µM) in assay [1]; 128 µg/mL (≈ 275 µM) in the assay on Enterococcus faecalis; 0.25 µg/mL (≈ 0.538 µM) against Staphylococcus aureus; greater than 128 µg/mL in the assay with Haemophilus influenzae; greater than 128 µg/mL in the assay on Streptococcus pneumoniae.
As for `O=C(O)c1cc(Br)ccc1-c1nnc(-c2ccccc2)o1`, the MIC (in assay [1]; in the assay with Enterococcus faecalis; against Staphylococcus aureus; against Haemophilus influenzae; against Streptococcus pneumoniae) was greater than 128 µg/mL throughout.
In the case of `O=C(O)c1cc(Br)ccc1-c1nnc(-c2ccccc2)[nH]1`, the MIC (in assay [1]; in the assay with Enterococcus faecalis; with Staphylococcus aureus; against Haemophilus influenzae; against Streptococcus pneumoniae) was greater than 128 µg/mL each time.
As to `O=C(Nc1ccc(Br)cc1C(=O)O)c1ccc(S(=O)(=O)N2CCc3cc(Cl)ccc32)cc1`, the MIC in assay [1] turned out to be 4 µg/mL (≈ 7.47 µM); with Enterococcus faecalis, 32 µg/mL (≈ 59.7 µM); against Staphylococcus aureus it was 0.5 µg/mL (≈ 0.933 µM); against Haemophilus influenzae, 128 µg/mL (≈ 239 µM); against Streptococcus pneumoniae, 4 µg/mL (≈ 7.47 µM).
Regarding `N#Cc1ccc([C@H]2C[C@@H]2c2cccc(S(=O)(=O)N3CCc4cc(Cl)ccc43)c2)c(C(=O)O)c1`, the MIC is 8 µg/mL (≈ 16.7 µM) in assay [1]; greater than 128 µg/mL against Enterococcus faecalis; 4 µg/mL (≈ 8.35 µM) against Staphylococcus aureus; 16 µg/mL (≈ 33.4 µM) with Haemophilus influenzae; greater than 128 µg/mL against Streptococcus pneumoniae.
For `N#Cc1ccc(NC(=S)c2cccc(S(=O)(=O)N3CCc4cc(Cl)ccc43)c2)c(C(=O)O)c1`, the MIC was determined as 0.125 µg/mL (≈ 0.251 µM) in assay [1]; 32 µg/mL (≈ 64.3 µM) in the assay on Enterococcus faecalis; 0.125 µg/mL (≈ 0.251 µM) with Staphylococcus aureus; 64 µg/mL (≈ 129 µM) with Haemophilus influenzae; 16 µg/mL (≈ 32.1 µM) in the assay with Streptococcus pneumoniae.
In the case of `O=C(O)c1cc(Cl)ccc1CCc1ccc(S(=O)(=O)N2CCc3cc(Cl)ccc32)cc1`, the MIC is 32 µg/mL (≈ 67.2 µM) in assay [1]; greater than 128 µg/mL against Enterococcus faecalis; 32 µg/mL (≈ 67.2 µM) against Staphylococcus aureus; greater than 128 µg/mL in the assay on Haemophilus influenzae; 32 µg/mL (≈ 67.2 µM) in the assay on Streptococcus pneumoniae.
